Laboratory results reported in USRE48461E1, “Modulation of androgen receptor expression” (Ionis Pharmaceuticals, Inc., priority 2012, dated 2021).
Oligonucleotides are written 5' to 3', each unit as a sugar letter and its base; * is a phosphorothioate linkage, no mark a phosphodiester; rarer units and linkages stand in square brackets, end groups in braces. Plain capitals give the bases only. e = 2'-O-(2-methoxyethyl) (MOE); k = constrained ethyl (cEt); [5mC] = 5-methylcytosine; d = 2'-deoxy (DNA)

Assays:
[1] = tested on: AR mRNA; assay: AR mRNA in LnCaP cells by free uptake (hAR_LTS00943); format: cell-based, human; conditions: 24 hrs
Experimental: Cells were plated at a concentration of 4,000 cells/well in 96-well plates. ISIS oligonucleotides, specified in Table 68, were added individually at 0.02 μM, 0.10 μM, 0.50 μM, 2.50 μM, or 10.00 μM. After an incubation period of 24 hrs, mRNA levels were measured using primer probe set hAR_LTS00943.

[2] = tested on: AR mRNA; assay: AR mRNA in liver, heart, skeletal muscle, kidney, prostate of cynomolgus monkeys; format: in vivo; conditions: cynomolgus monkey, 40 mg/kg subcutaneously; for Percent Inhibition of AR mRNA relative to the PBS control, Heart: weeks 1 to 6, Heart; for Percent Inhibition of AR mRNA relative to the PBS control, Kidney: weeks 1 to 6, Kidney; for Percent Inhibition of AR mRNA relative to the PBS control, Liver: weeks 1 to 6, Liver; for Percent Inhibition of AR mRNA relative to the PBS control, Skeletal Muscle: weeks 1 to 6, Skeletal Muscle; for Percent Inhibition of AR mRNA relative to the PBS control, Prostate: weeks 1 to 6, Prostate
Experimental: Cynomolgus monkeys were treated with ISIS antisense oligonucleotides selected from studies described above. Antisense oligonucleotide efficacy and tolerability were evaluated. The human antisense oligonucleotides tested are cross-reactive with the rhesus genomic sequence (GENBANK Accession No. NW_001218131.1 truncated from nucleotides 134001 to 308000 and designated herein as SEQ ID NO: 189). The target start site and target region of each oligonucleotide to SEQ ID NO: 189, as well as the details of their chemistry and sequence, is presented in Table 133.
RNA was extracted from liver, heart, skeletal muscle, kidney, and prostate tissues for real-time PCR analysis of AR using primer probe set RTS3559. The results were normalized to RIBOGREEN®. Results are presented as percent inhibition of AR mRNA, relative to PBS control.

[3] = tested on: AR mRNA; assay: Dose-dependent antisense inhibition of human AR in HuVEC cells (electroporation, qRT-PCR RTS3559, IC50); format: cell-based; conditions: HuVEC
In short: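 HuVEC cells dosed with antisense oligonucleotides by electroporation and treated approximately 16 hours. AR mRNA quantified by real-time qPCR with primer probe set RTS3559 and normalised to total RNA by RIBOGREEN; IC50 from dose-response.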

[4] = tested on: AR mRNA; assay: Antisense inhibition of human AR in HuVEC cells, single concentration (electroporation, qRT-PCR RTS3559); format: cell-based; conditions: electroporation, approximately 24 hours, relative to untreated control
In short: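 HuVEC cells electroporated with antisense oligonucleotides at a single concentration. AR mRNA quantified by qRT-PCR using human primer-probe set RTS3559 and normalised to total RNA content by RIBOGREEN.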

[5] = Table 33, electroporation, approximately 16 hours
[6] = Table 24, 1,000 nM oligonucleotide
[7] = Table 35, electroporation, approximately 16 hours
[8] = Table 36, electroporation, approximately 16 hours

| Substance | Percent inhibition of AR mRNA ([1]; 0.02 μM) | Percent inhibition of AR mRNA ([1]; 0.1 μM) | Percent inhibition of AR mRNA ([1]; 0.5 μM) | Percent inhibition of AR mRNA ([1]; 10 μM) | Percent Inhibition of AR mRNA relative to the PBS control, Heart [2] | Percent Inhibition of AR mRNA relative to the PBS control, Kidney [2] | Percent Inhibition of AR mRNA relative to the PBS control, Liver [2] | Percent Inhibition of AR mRNA relative to the PBS control, Skeletal Muscle [2] | Percent Inhibition of AR mRNA relative to the PBS control, Prostate [2] | % inhibition [4, 6] | percent inhibition of AR, 46.9 nM [3, 7] | percent inhibition of AR, 187.5 nM [3, 7] | percent inhibition of AR, 750.0 nM [3, 7] | percent inhibition of AR, 3000.0 nM [3, 7] | IC50 [3, 7] | percent inhibition of AR, 46.9 nM [3, 8] | percent inhibition of AR, 187.5 nM [3, 8] | percent inhibition of AR, 750.0 nM [3, 8] | percent inhibition of AR, 3000.0 nM [3, 8] | IC50 [3, 8] | also measured |
| --- | --- | --- | --- | --- | --- | --- | --- | --- | --- | --- | --- | --- | --- | --- | --- | --- | --- | --- | --- | --- | --- |
| 579671 (antisense eT*kT*kG*eA*kT*kT*dT*dA*dA*dT*dG*dG*dT*kT*kG*k[5mC]) [compound 579671] | 15% | 0% | 19% | 71% | 24% | 53% | 33% | 31% |  |  |  |  |  |  |  |  |  |  |  |  | percent inhibition of AR ([3]; 62.5 nM, ~16 h, Table 11): 6%; percent inhibition of AR ([3]; 125.0 nM, ~16 h, Table 11): 40%; percent inhibition of AR ([3]; 500.0 nM, ~16 h, Table 11): 57%; percent inhibition of AR ([3]; 1000.0 nM, ~16 h, Table 11): 77%; IC50 ([3]; ~16 h, Table 11): 288 nM |
| 583918 (kA*kG*kT*d[5mC]*dG*d[5mC]*dG*dA*d[5mC]*dT*d[5mC]*dT*dG*kG*kT*kA) [compound 583918] | 8% | 0% | 0% | 13% | 76% | 73% | 88% | 74% | 58% |  |  |  |  |  |  |  |  |  |  |  | % inhibition ([4]; Table 21, 500 nM oligonucleotide): 47%; percent inhibition of AR, 46.9 nM [3, 5]: 16%; percent inhibition of AR, 187.5 nM [3, 5]: 47%; percent inhibition of AR, 750.0 nM [3, 5]: 68%; percent inhibition of AR, 3000.0 nM [3, 5]: 86%; IC50 [3, 5]: 300 nM |
| 584149 (kG*kT*k[5mC]*dA*dA*dT*dA*dT*d[5mC]*dA*dA*dA*dG*k[5mC]*kA*k[5mC]) [compound 584149] | 0% | 0% | 0% | 39% | 33% | 77% | 93% | 63% | 45% | 85% | 11% | 37% | 68% | 89% | 310 nM |  |  |  |  |  |  |
| 584163 (kG*kA*kA*d[5mC]*dA*dT*dT*dA*dT*dT*dA*dG*dG*k[5mC]*kT*kA) [compound 584163] | 0% | 0% | 19% | 70% | 53% | 90% | 98% | 73% | 58% | 81% | 19% | 37% | 74% | 90% | 250 nM |  |  |  |  |  |  |
| 584269 (k[5mC]*k[5mC]*kT*dT*dA*dT*dG*dG*dA*dT*dG*d[5mC]*dT*kG*k[5mC]*kT) [compound 584269] | 0% | 0% | 0% | 23% | 72% | 92% | 96% | 76% | 41% |  |  |  |  |  |  | 6% | 26% | 69% | 92% | 340 nM | % inhibition ([4]; Table 25, 1,000 nM oligonucleotide): 57% |
| 584468 (k[5mC]*kA*kT*dT*dG*dT*dA*d[5mC]*dT*dA*dT*dG*d[5mC]*k[5mC]*kA*kG) [compound 584468] | 0% | 0% | 10% | 73% | 33% | 88% | 97% | 53% | 50% |  |  |  |  |  |  | 9% | 26% | 60% | 90% | 370 nM | % inhibition ([4]; Table 27, 1,000 nM oligonucleotide): 64% |
